Assay results taken from patent US9950048B2, “Immunogenic epitopes for immunotherapy” (immatics biotechnologies GmbH, priority 2007, dated 2018).
Ends that are not written are not given here.

Experiments:
[1] = system: CD8+ T cells of healthy HLA-A*02+ donors; assay: In vitro priming of CD8+ T cells with pMHC/anti-CD28 coated beads (high density), tetramer analysis; assay type: cell-based, human; conditions: for Immunogenicity detected: at least one well with ≥1% specific tetramer+ among CD8+ T-cells and ≥10× median of negative controls; for Positive donors/donors tested / Positive donors/donors tested (%) / Positive wells/wells tested / Positive wells/wells tested (%): high density beads
Description: To perform in vitro stimulations by artificial antigen presenting cells (aAPC) loaded with peptide-MHC complex (pMHC) and anti-CD28 antibody, first PBMCs (peripheral blood mononuclear cells) were isolated from fresh HLA-A*02+ buffy coats by using standard density gradient separation medium (PAA, Cölbe, Germany). Buffy coats were either obtained from the Blood Bank Tübingen or from the Katharinenhospital Stuttgart. Isolated PBMCs were incubated overnight in T-cell medium (TCM) for human in vitro priming consisting of RPMI-Glutamax (Invitrogen, Karlsruhe, Germany) supplemented with 10% heat inactivated human AB serum (PAA, Cölbe, Germany), 100 U/ml Penicillin/100 μg/ml Streptomycin (Cambrex, Verviers, Belgium), 1 mM sodium pyruvate (CC Pro, Neustadt, Germany) and 20 μg/ml Gentamycin (Cambrex). CD8+ lymphocytes were isolated using the CD8+ MACS positive selection kit (Miltenyi, Bergisch Gladbach, Germany) according to the manufacturer's instructions. Obtained CD8+ T-cells were incubated until use in TCM supplemented with 2.5 ng/ml IL-7 (PromoCell, Heidelberg, Germany) and 10 U/ml IL-2 (Chiron, Munich, Gemany). Generation of pMHC/anti-CD28 coated beads, T-cell stimulations and readout was performed as described before (Walter, S, et al., 2003, J. Immunol., 171, 4974-4978) with minor modifications. Briefly, biotinylated recombinant HLA-A*0201 molecules lacking the transmembrane domain and being biotinylated at the carboxy terminus of the heavy chain were produced following a method described by (Altman, J D, et al., 1996, Science, 274, 94-96). The purified costimulatory mouse IgG2a anti human CD28 Ab 9.3 (Jung, G, Ledbetter, J A, and Muller-Eberhard, H J; 1987, Induction of cytotoxicity in resting human T lymphocytes bound to tumor cells by antibody heteroconjugates, Proc Natl Acad Sci USA, 84, 4611-4615) was chemically biotinylated using Sulfo-N-hydroxysuccinimidobiotin as recommended by the manufacturer (Perbio, Bonn, Germany).
800,000 beads/200 μl were coated in 96-well plates in the presence of 600 ng biotin anti-CD28 plus 200 ng relevant biotin-pMHC (high density beads) or 2 ng relevant plus 200 ng irrelevant (pMHC library) MHC (low density beads). Stimulations were initiated in 96-well plates by conincubating 1×10^6 CD8+ T cells with 2×10^5 washed coated beads in 200 μl TCM supplemented with 5 ng/ml IL-12 (PromoCell) for 3-4 days at 37° C. Half of the medium was then exchanged by fresh TCM supplemented with 80 U/ml IL-2 and incubation was continued for 3-4 days at 37° C. This stimulation cycle was performed for a total of three times. Finally, tetrameric analyses were performed with fluorescent MHC tetramers (produced as described by (Altman, J D, et al., 1996, Science, 274, 94-96)) plus antibody CD8-FITC clone SK1 (BD, Heidelberg, Germany) on a four-color FACSCalibur (BD). Peptide specific cells were calculated as percentage of total CD8+ T cells. Evaluation of tetrameric analysis was performed using the software FCS Express (De Novo Software). In vitro priming of specific tetramer+CD8+ lymphocytes was detected by appropriate gating and by comparison to negative control stimulations.
Peptides of the present invention were tested together with peptides of known in vivo immunogenicity for comparison. The CEA-005 peptide that was optimised for in vitro T-cell induction (Fong, L, et al., 2001, J. Immunol., 166, 4254-4259) served as control.
Results of in vitro immunogenicity experiments conducted by immatics are summarised here. Results shown have been obtained by stimulation of CD8+ cells with high density beads. As different human serum lots may highly affect the immunogenicity results, only assays in which one and the same serum lot was used, were evaluated together.

[2] = system: sorted CD8+ NOX-001 tetramer+ T-cell line; assay: IFNγ ELISPOT functionality test of sorted specific CD8+ T-cell line; assay type: cell-based, human; conditions: FIG. 8
Description: FIGS. 8A and 8B depict the ELISPOT analysis of IFNγ production by T-cell lines upon in vitro restimulation with the NOX-001 peptide. FIG. 8A is T-cell line 7+ from donor HBC-154 (sorted CD8+ NOX-001 tetramer+). FIG. 8B is T-cell line 7—from donor HBC-154 (sorted CD8+ NOX-001 tetramer+).
Sorted CD8+ NOX-001 tetramer+(A.) and CD8+ NOX-001 tetramer-(B.) cells were analysed by IFNγ ELISPOT after restimulation with irrelevant (MLA-001) (upper wells) and relevant (NOX-001) (lower wells) peptide (10 μg/ml). Numbers indicate the count of positive spots.
To determine their functionality, IFNγ production was assessed by ELISPOT (IFNγ ELISPOT Set, BD, Germany) after restimulation of the cells with the corresponding peptide. Additionally, cell-mediated cytotoxicity of specific CTLs was investigated by killing of tumor cell lines using the LIVE/DEAD cell-mediated cytotoxicity Kit (L7010, Invitrogen, Germany). Both assays were performed according to manufacturer's instructions, except noted otherwise.

Sequence | Immunogenicity detected [1] | Positive donors/donors tested [1] | Positive donors/donors tested (%) [1] | Positive wells/wells tested [1] | Positive wells/wells tested (%) [1] | IFNγ production of T-cell line after restimulation with peptide [2]
ILAPVILYI [NOX-001] | yes | 3/5 | (60%) | 9/60 | (15%) | specifically expressing IFNγ after restimulation with this peptide
ALFVRLLALA [TGFBI-001] | yes | 3/4 | (75%) | 4/22 | (18%) | –
